Data on 20 molecules can be found in patent US11919899B2, “Substituted 1-(3,3-difluoropiperidin-4-yl)-imidazo[4,5-c] quinolin-2-one compounds with blood-brain barrier penetrable capability” (priority 2020, dated 2024).

The target of one data set is P-glycoprotein (Homo sapiens, UniProt P08183). The data set can be described thus: P-glycoprotein efflux substrate. In kind it is in vitro ADME. The following applies: not told.
A short description of data set [1]: Blood-brain barrier penetration (brain tissue to plasma concentration ratio). Type of data set: in vivo. As to conditions: ratio of concentration in brain tissue to plasma; rats or mice, four hours after dosing. As to the method: Four hours after dosing, rats or mice were sacrificed, blood and brain tissue were collected and the concentration of the test compound was analyzed. Brain permeation is defined as the ratio of the concentration of the compound in the brain tissue to the concentration in the plasma. P-glycoprotein and BCRP (Breast Cancer Resistance Protein) are the blood-brain barrier efflux proteins, the P-glycoprotein substrate (Efflux ratio>1.5) and/or BCRP substrate (Efflux ratio>1.5) is out of the brain.

The target of the next data set is T1, BCRP (Homo sapiens, UniProt Q9UNQ0).
T1 sequence (Q9UNQ0 1-655): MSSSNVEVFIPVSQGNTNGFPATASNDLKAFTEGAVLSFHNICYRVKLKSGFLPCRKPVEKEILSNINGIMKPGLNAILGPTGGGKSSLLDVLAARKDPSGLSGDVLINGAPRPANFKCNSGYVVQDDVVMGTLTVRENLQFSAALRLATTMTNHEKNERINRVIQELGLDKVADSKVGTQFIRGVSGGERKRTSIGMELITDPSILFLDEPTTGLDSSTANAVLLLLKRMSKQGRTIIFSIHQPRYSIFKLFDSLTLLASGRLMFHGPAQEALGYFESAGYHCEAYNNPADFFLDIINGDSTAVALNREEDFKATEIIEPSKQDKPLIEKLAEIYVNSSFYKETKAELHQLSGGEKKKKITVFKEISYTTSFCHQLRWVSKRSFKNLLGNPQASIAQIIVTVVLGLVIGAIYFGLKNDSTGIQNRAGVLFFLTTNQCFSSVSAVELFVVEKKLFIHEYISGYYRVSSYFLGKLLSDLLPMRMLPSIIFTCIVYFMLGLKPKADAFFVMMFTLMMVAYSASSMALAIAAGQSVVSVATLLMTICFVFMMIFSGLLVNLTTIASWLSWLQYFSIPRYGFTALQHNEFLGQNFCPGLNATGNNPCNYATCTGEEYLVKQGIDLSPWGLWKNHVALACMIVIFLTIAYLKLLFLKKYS
The data set can be described thus: BCRP efflux substrate. In kind it is in vitro ADME. The following applies: not told.

Chain of P-glycoprotein (P08183 whole entry): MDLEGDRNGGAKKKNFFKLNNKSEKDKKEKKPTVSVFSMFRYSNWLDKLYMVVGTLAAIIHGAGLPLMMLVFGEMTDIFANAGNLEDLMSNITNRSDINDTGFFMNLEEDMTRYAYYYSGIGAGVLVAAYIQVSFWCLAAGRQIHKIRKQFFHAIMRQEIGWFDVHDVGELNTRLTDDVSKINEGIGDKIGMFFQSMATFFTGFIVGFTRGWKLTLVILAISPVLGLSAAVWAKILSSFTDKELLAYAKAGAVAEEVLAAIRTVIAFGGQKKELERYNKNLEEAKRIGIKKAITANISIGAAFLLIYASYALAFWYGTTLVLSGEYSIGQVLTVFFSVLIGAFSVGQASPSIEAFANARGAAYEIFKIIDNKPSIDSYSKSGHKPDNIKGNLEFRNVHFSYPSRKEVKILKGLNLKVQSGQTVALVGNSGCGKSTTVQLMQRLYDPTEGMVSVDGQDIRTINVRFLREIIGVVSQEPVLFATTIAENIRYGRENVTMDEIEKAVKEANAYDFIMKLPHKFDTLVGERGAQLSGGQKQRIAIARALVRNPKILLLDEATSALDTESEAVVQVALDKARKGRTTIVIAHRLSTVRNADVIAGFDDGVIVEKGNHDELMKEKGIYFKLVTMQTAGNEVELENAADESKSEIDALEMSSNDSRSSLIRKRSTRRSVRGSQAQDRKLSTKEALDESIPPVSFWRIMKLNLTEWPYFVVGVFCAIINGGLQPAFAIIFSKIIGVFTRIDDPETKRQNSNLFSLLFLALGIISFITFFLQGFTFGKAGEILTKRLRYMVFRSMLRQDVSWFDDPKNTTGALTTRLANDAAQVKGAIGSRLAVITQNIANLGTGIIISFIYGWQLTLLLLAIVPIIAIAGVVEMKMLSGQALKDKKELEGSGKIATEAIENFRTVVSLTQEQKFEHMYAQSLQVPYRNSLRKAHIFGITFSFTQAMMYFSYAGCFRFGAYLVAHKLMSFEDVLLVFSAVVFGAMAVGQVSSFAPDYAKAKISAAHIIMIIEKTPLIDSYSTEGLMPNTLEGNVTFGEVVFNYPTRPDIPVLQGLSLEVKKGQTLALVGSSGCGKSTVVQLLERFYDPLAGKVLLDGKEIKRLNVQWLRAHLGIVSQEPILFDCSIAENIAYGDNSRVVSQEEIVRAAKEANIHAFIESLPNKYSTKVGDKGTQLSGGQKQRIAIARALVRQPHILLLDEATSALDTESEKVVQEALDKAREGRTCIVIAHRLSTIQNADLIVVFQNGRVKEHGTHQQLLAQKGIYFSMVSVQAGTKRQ

With `CCN1CCC(n2c(=O)n(C)c3cnc4ccc(-c5ccc(OC)nc5)cc4c32)C(F)(F)C1` (racemic) [Compound 2, (R/S)-1-(1-ethyl-3,3-difluoropiperidin-4-yl)-8-(6-methoxypyridin-3-yl)-3-methyl-1,3-dihydro-2H-imidazo[4,5-c]quinolin-2-one], the efflux ratio at P-glycoprotein and on BCRP was below 1 in each case. Besides, in data set [1], the Kp at 4 h was above 0.3.

Take `COc1ccc(-c2ccc3ncc4c(c3c2)n(C2CCN(C(C)C)CC2(F)F)c(=O)n4C)cn1` (racemic) [Compound 3, (R/S)-1-(3,3-difluoro-1-isopropylpiperidin-4-yl)-8-(6-methoxypyridin-3-yl)-3-methyl-1,3-dihydro-2H-imidazo[4,5-c]quinolin-2-one]: the efflux ratio at P-glycoprotein and at BCRP was below 1 each time. Moreover, in data set [1], the Kp at 4 h is above 0.3.

As to `CCOc1ccc(-c2ccc3ncc4c(c3c2)n(C2CCN(C)CC2(F)F)c(=O)n4C)cn1` (racemic) [Compound 4, (R/S)-1-(3,3-difluoro-1-methylpiperidin-4-yl)-8-(6-ethoxypyridin-3-yl)-3-methyl-1,3-dihydro-2H-imidazo[4,5-c]quinolin-2-one], the efflux ratio on P-glycoprotein and at BCRP was below 1 each time. The Kp at 4 h in data set [1] was above 0.3.

Consider `COc1ccc(-c2cc3c(cc2F)ncc2c3n(C3CCN(C)CC3(F)F)c(=O)n2C)cn1` (racemic) [Compound 5, (R/S)-1-(3,3-difluoro-1-methylpiperidin-4-yl)-7-fluoro-8-(6-methoxypyridin-3-yl)-3-methyl-1,3-dihydro-2H-imidazo[4,5-c]quinolin-2-one], for which the efflux ratio on P-glycoprotein and at BCRP was below 1 in each case. The Kp at 4 h in data set [1] was above 0.3.

Consider `CC(C)Oc1ccc(-c2ccc3ncc4c(c3c2)n(C2CCN(C)CC2(F)F)c(=O)n4C)cn1` (racemic) [Compound 7, (R/S)-1-(3,3-difluoro-1-methylpiperidin-4-yl)-8-(6-isopropoxypyridin-3-yl)-3-methyl-1,3-dihydro-2H-imidazo[4,5-c]quinolin-2-one], for which the efflux ratio at P-glycoprotein and at BCRP was below 1 throughout. Besides, the Kp at 4 h in data set [1] was above 0.3.

Take `CN1CCC(n2c(=O)n(C)c3cnc4ccc(-c5ccc(N(C)C)nc5)cc4c32)C(F)(F)C1` (racemic) [Compound 8, (R/S)-1-(3,3-difluoro-1-methylpiperidin-4-yl)-8-(6-(dimethylamino)pyridin-3-yl)-3-methyl-1,3-dihydro-2H-imidazo[4,5-c]quinolin-2-one]: the efflux ratio at P-glycoprotein and on BCRP was below 1 in each case. For the same molecule, in data set [1], the Kp at 4 h is above 0.3.

As for `CN1CCC(n2c(=O)n(C)c3cnc4ccc(-c5ccc(OC6CC6)nc5)cc4c32)C(F)(F)C1` (racemic) [Compound 10, (R/S)-8-(6-cyclopropoxypyridin-3-yl)-1-(3,3-difluoro-1-methylpiperidin-4-yl)-3-methyl-1,3-dihydro-2H-imidazo[4,5-c]quinolin-2-one], the efflux ratio at P-glycoprotein and at BCRP was below 1 in each case. Further, the Kp at 4 h in data set [1] was above 0.3.

Turning to `CN1CCC(n2c(=O)n(C)c3cnc4ccc(-c5ccc(N6CC(N(C)C)C6)nc5)cc4c32)C(F)(F)C1` (racemic) [Compound 11, (R/S)-1-(3,3-difluoro-1-methylpiperidin-4-yl)-8-(6-(3-(dimethylamino)azetidin-1-yl)pyridin-3-yl)-3-methyl-1,3-dihydro-2H-imidazo[4,5-c]quinolin-2-one], the efflux ratio at P-glycoprotein and at BCRP was below 1 each time. Moreover, in data set [1], the Kp at 4 h is above 0.3.

With `CN1CCC(n2c(=O)n(C)c3cnc4ccc(-c5ccc(N6CC7C6CCN7C)nc5)cc4c32)C(F)(F)C1` (racemic) [Compound 13, (R/S)-1-(3,3-difluoro-1-methylpiperidin-4-yl)-3-methyl-8-(6-((1R,5R/1S,5S)-(2-methyl-2,6-diazabicyclo[3.2.0]heptan-6-yl)pyridin-3-yl)-1,3-dihydro-2H-imidazo[4,5-c]quinolin-2-one], the efflux ratio on P-glycoprotein and at BCRP was below 1 each time. The Kp at 4 h in data set [1] was above 0.3.

For the molecule `CCN1CC[C@@H](n2c(=O)n(C)c3cnc4ccc(-c5ccc(OC)nc5)cc4c32)C(F)(F)C1` [Compound 15, (R)-1-(1-ethyl-3,3-difluoropiperidin-4-yl)-8-(6-methoxypyridin-3-yl)-3-methyl-1,3-dihydro-2H-imidazo[4,5-c]quinolin-2-one], the efflux ratio on P-glycoprotein and on BCRP was below 1 each time. For the same molecule, the Kp at 4 h in data set [1] was above 0.3.

For the molecule `COc1ccc(-c2ccc3ncc4c(c3c2)n([C@@H]2CCN(C(C)C)CC2(F)F)c(=O)n4C)cn1` [Compound 16, (R)-1-(3,3-difluoro-1-isopropylpiperidin-4-yl)-8-(6-methoxypyridin-3-yl)-3-methyl-1,3-dihydro-2H-imidazo[4,5-c]quinolin-2-one], the efflux ratio at P-glycoprotein and at BCRP was below 1 each time. Further, the Kp at 4 h in data set [1] was above 0.3.

Turning to `CCOc1ccc(-c2ccc3ncc4c(c3c2)n([C@@H]2CCN(C)CC2(F)F)c(=O)n4C)cn1` [Compound 17, (R)-1-(3,3-difluoro-1-methylpiperidin-4-yl)-8-(6-ethoxypyridin-3-yl)-3-methyl-1,3-dihydro-2H-imidazo[4,5-c]quinolin-2-one], the efflux ratio at P-glycoprotein and at BCRP was below 1 each time. Also, the Kp at 4 h in data set [1] was above 0.3.

As for `COc1ccc(-c2cc3c(cc2F)ncc2c3n([C@@H]3CCN(C)CC3(F)F)c(=O)n2C)cn1` [Compound 18, (R)-1-(3,3-difluoro-1-methylpiperidin-4-yl)-7-fluoro-8-(6-methoxypyridin-3-yl)-3-methyl-1,3-dihydro-2H-imidazo[4,5-c]quinolin-2-one], the efflux ratio on P-glycoprotein and on BCRP was below 1 each time. For the same molecule, the Kp at 4 h in data set [1] is above 0.3.

As to `CC(C)Oc1ccc(-c2ccc3ncc4c(c3c2)n([C@@H]2CCN(C)CC2(F)F)c(=O)n4C)cn1` [Compound 20, (R)-1-(3,3-difluoro-1-methylpiperidin-4-yl)-8-(6-isopropoxypyridin-3-yl)-3-methyl-1,3-dihydro-2H-imidazo[4,5-c]quinolin-2-one], the efflux ratio on P-glycoprotein and on BCRP was below 1 each time. In addition, the Kp at 4 h in data set [1] is above 0.3.

As for `CN1CC[C@@H](n2c(=O)n(C)c3cnc4ccc(-c5ccc(N(C)C)nc5)cc4c32)C(F)(F)C1` [Compound 21, (R)-1-(3,3-difluoro-1-methylpiperidin-4-yl)-8-(6-(dimethylamino)pyridin-3-yl)-3-methyl-1,3-dihydro-2H-imidazo[4,5-c]quinolin-2-one], the efflux ratio on P-glycoprotein and at BCRP was below 1 in each case. Moreover, the Kp at 4 h in data set [1] was above 0.3.

Take `CN1CC[C@@H](n2c(=O)n(C)c3cnc4ccc(-c5ccc(OC6CC6)nc5)cc4c32)C(F)(F)C1` [Compound 23, (R)-8-(6-cyclopropoxypyridin-3-yl)-1-(3,3-difluoro-1-methylpiperidin-4-yl)-3-methyl-1,3-dihydro-2H-imidazo[4,5-c]quinolin-2-one]: the efflux ratio at P-glycoprotein and on BCRP was below 1 throughout. In addition, in data set [1], the Kp at 4 h is above 0.3.

On to `CN1CC[C@@H](n2c(=O)n(C)c3cnc4ccc(-c5ccc(N6CC(N(C)C)C6)nc5)cc4c32)C(F)(F)C1` [Compound 24, (R)-1-(3,3-difluoro-1-methylpiperidin-4-yl)-8-(6-(3-(dimethylamino)azetidin-1-yl)pyridin-3-yl)-3-methyl-1,3-dihydro-2H-imidazo[4,5-c]quinolin-2-one], for which the efflux ratio at P-glycoprotein and at BCRP was below 1 each time. For the same molecule, the Kp at 4 h in data set [1] is above 0.3.

As for `CN1CC[C@@H](n2c(=O)n(C)c3cnc4ccc(-c5ccc(N6C[C@@H]7[C@H]6CCN7C)nc5)cc4c32)C(F)(F)C1` [Compound 26], the efflux ratio at P-glycoprotein and at BCRP was below 1 each time. Besides, in data set [1], the Kp at 4 h was above 0.3.

With `CN1CC[C@@H](n2c(=O)n(C)c3cnc4ccc(-c5ccc(N6C[C@H]7[C@@H]6CCN7C)nc5)cc4c32)C(F)(F)C1` [Compound 27], the efflux ratio at P-glycoprotein and at BCRP was below 1 throughout. Besides, in data set [1], the Kp at 4 h is above 0.3.

Regarding `CCN1CC[C@H](n2c(=O)n(C)c3cnc4ccc(-c5ccc(OC)nc5)cc4c32)C(F)(F)C1` [Compound 29, (S)-1-(1-ethyl-3,3-difluoropiperidin-4-yl)-8-(6-methoxypyridin-3-yl)-3-methyl-1,3-dihydro-2H-imidazo[4,5-c]quinolin-2-one], the efflux ratio at P-glycoprotein and at BCRP was below 1 in each case. For the same molecule, in data set [1], the Kp at 4 h was above 0.3.
